Key:
[1] = system: RAW264.7 macrophage cells; assay: FACS analysis of cell viability in M2 activated RAW264.7 cultures; type: cell-based
Protocol: RAW264.7 macrophage cells, untreated and treated with IL-4 (20 ng/ml), were stained with 1:1000 diluted viability stain (BD Horizon Fixable Viability Stain 660). Cells were analyzed by FACS and gated for unstained (viable) and stained (non-viable) populations.

[2] = DPPH colorimetric anti-oxidant assay; type: biochemical; conditions: incubation with DPPH, various concentrations
Excerpt: In this colorimetric assay, DPPH functions as a free radical that can be inactivated by anti-oxidant compounds resulting in loss of color. […] Zinc was not tested alone since it was not completely soluble in the organic solvents needed for the assay. Ascorbic Acid functions as an antioxidant positive control.

[3] = system: RAW264.7 macrophage cells; assay: Charcoal phagocytosis assay in activated RAW264.7 macrophage cells; type: cell-based; conditions: during M1 activation (1 μg/ml LPS/20 ng/ml IFN); 50 μM CHP, 10 μM Zn
Protocol: RAW264.7 macrophage cells (ATCC® TIB-71) were activated to either inflammatory M1 macrophage phenotype (with 1 μg/ml LPS/20 ng/ml IFN) or to the anti-inflammatory M2 phenotype (with 20 ng/ml IL-4) in the presence or absence of Cyclo-Z (50 μM CHP/10 μM Zn) treatment. Charcoal dust was added to the culture as a marker of M1 phagocytosis activity.
To compare between CHP and Zinc effects in Cyclo-Z on charcoal binding activities, we determined the phagocytosis activity of CHP (50 μM CHP) or Zinc (10 μM Zn) alone or Cyclo-Z during activation of M1 macrophages (with 1 μg/ml LPS/20 ng/ml IFN).

[4] = system: ROS in VSMCs; assay: ROS generation in VSMCs analyzed by FACS (CM-H2CFDA fluorescence); type: cell-based; conditions: 45 minutes
Protocol: (§1) VSMC were seeded (1.25×10^5 cells/well in 12-well plates) and incubated at 37° C. for 24 hr. Cultures were then subjected to various treatments (as shown in Table 1) to induce ROS for 45 minutes (at 37° C.) along with 10 μM CM-H2CFDA (Molecular Probes, Inc., Eugene, Oreg.). CM-H2DCFDA is a chloromethyl derivative of H2DCFDA, useful as an indicator for ROS in cells. Subsequent oxidation of CM-H2CFDA yields a fluorescent adduct that is trapped inside the cell. At the end of treatment period cells were trypsinized, washed, and analyzed by FACS for ROS (CM-H2CFDA fluorescence) and viability using a viability stain (BD Horizon Fixable Viability Stain 660; BD Biosciences, San Jose, Calif.).

[5] = system: VSMCs; assay: Cell viability in VSMCs analyzed by FACS (viability stain); type: cell-based; conditions: 45 minutes
Protocol: as §1

[6] = system: mouse spleen cells (B-cell activation); assay: B-cell activation in mouse spleen cells; type: cell-based; conditions: alone, 4 days; LPS 1 μg/ml; Cyclo-Z 50 μM CHP/10 μM Zn
Protocol: Mouse spleen cells were isolated from wild type C57BL/6J mice (The Jackson Laboratory; strain 000632) and plated under standard cell culture conditions in the presence or absence of Cyclo-Z (50 μM CHP/10 μM zinc) and/or LPS for 4 days. Nodules indicating increased B-cell activation and proliferation were visualized by microscopy.

[7] = added with IL-4 (20 ng/ml), M2 activated

O=C1N[C@@H](Cc2cnc[nH]2)C(=O)N2CCC[C@@H]12 [CHP, cyclo-Hispro]
Percent Non-Viability [1, 7]: 14.13%
Percent Viability (Stained) [1, 7]: 73.63%
anti-oxidant activity (DPPH) [2]: concentration dependent anti-oxidant activity
charcoal uptake (phagocytosis activity) [3]: did not show any effects

OO [H2O2, hydrogen peroxide]
ROS Population ([4]; H2O2 (5 μL) alone): 81.33
ROS Population ([4]; H2O2 (10 μL) alone): 50.63
Viability Population ([5]; H2O2 (5 μL) alone): 22.31
Viability Population ([5]; H2O2 (10 μL) alone): 7.33

OC[C@H]1OC(O)[C@H](O)[C@@H](O)[C@@H]1O (stereo partly shown) [HG]
ROS Population ([4]; HG (50 mM) alone): 0.04
ROS Population ([4]; HG (100 mM) alone): 0.04
Viability Population ([5]; HG (50 mM) alone): 61.63
Viability Population ([5]; HG (100 mM) alone): 63.9

[Cl-].[Cl-].[Zn+2] [Zinc, ZnCl2]
Percent Non-Viability [1, 7]: 33.49%
Percent Viability (Stained) [1, 7]: 58.47%
charcoal uptake (phagocytosis activity) [3]: somewhat effective

IL-4: Interleukin-4, cytokine used to activate macrophages to M2 phenotype
Percent Non-Viability ([1]; IL-4 (20 ng/ml) alone): 17.63%

lipopolysaccharide [LPS]
B-cell activation/proliferation (nodules) [6]: induced some B-cell activation/proliferation
ROS Population ([4]; LPS alone): 0.09
Viability Population ([5]; LPS alone): 75.81
